The record followed here is patent publication US12655169B2, “Arabinose and preparation and use thereof” (THOMSON BIOTECH (XIAMEN) PTE. LTD., priority 2022, dated 2026).

Data set [1] can be described thus: In vitro osmotic pressure test (Vapro Pressure Osmometer). It is filed as physicochemical. The settings on record: versus sorbitol solution at the same mass concentration 30%. The text has this: Instrument: Vapro Pressure Osmometer
Materials: L-Arabinose (Prepared According to the Method of Example 1); Sorbitol (Commercially Available Chinese Medicinal Agent)
Procedure: The 4 numbered solutions were each prepared according to the material proportions shown in Table 2 and stirred until they were all clear and transparent.

Data set [2] can be described thus: Saturation curve and crystallization curve of L-arabinose. It is filed as physicochemical. The settings on record: for Crystallization mass concentration: cooling 1 °C/h, stirring 100 rpm; for Saturation mass concentration: water. How it is done: A round-bottom flask was plated in a constant-temperature box with temperature control. To a three-necked round-bottom flask (one flask mouth was plugged with a plastic stopper as a sampling mouth, one flask mouth was used for placing a stirrer, and one flask mouth was used for temperature sensing) were added a certain amount of ionized water and excessive L-arabinose crystal (prepared according to the method of Example 10). The mixture was stirred at 40° C., 49° C., 53° C., 58° C. and 65° C. for 3 h per temperature point, and then let stand for 4 h to allow the undissolved L-arabinose crystal to completely settle. Then the supernatant was collected and filtered through a microporous filter membrane (for filtration using a small injection needle in the constant-temperature box to eliminate the effect of temperature change). The resulting clear liquid was used for concentration determination. A saturation curve was plotted for arabinose: y=0.5927x+23.089 (correlation coefficient R 2=0.99) (see FIG. 4). Clear sugar liquids in which corresponding mass concentrations of L-arabinose were dissolved was prepared, then slowly cooled (1° C./h), and cooled at a constant rate (with stirring at 100 rpm). The crystallization temperature of the sugar liquids with different mass concentrations was observed and recorded. A crystallization curve was plotted for arabinose: y=0.4163x+40.413 (correlation coefficient R 2=1) (see FIG. 4 and Table 15-1).

Another data set has as its system Humans. Put plainly: Bowel preparation in humans. It counts as in vivo. The procedure:
Administration Sample: L-Arabinose Prepared in Example 1 Subject: weighing 73 kg Administration Regimen: The subject drank water normally on an empty stomach after getting up in the morning. At 10:06, the subject dissolved 30 g of L-arabinose in about 100-150 mL of mineral water and consumed the solution in about 5 min.

Data set [3] is described as follows: Granularity distribution of sample (standard sieve). Particulars: Example 8 samples, seed crystal specification and fed-batch time varied. It counts as physicochemical. How it is done: 1 kg of L-arabinose starting material was dissolved in 1.2 kg of purified water at 60° C. After the solution was completely clear, 1 g of activated carbon ([…] of the L-arabinose) was added. The mixture was incubated at 60° C. for 30 min and then subjected to suction filtration under vacuum successively through 25 μm and 0.45 μm filter membranes to remove the activated carbon, and a clear filtered sugar liquid (about 1800 mL in volume) was obtained. About 800 mL of the clear filtered sugar liquid was added to a three-necked flask, and stirred and evaporated under reduced pressure in a water bath set at a temperature of 62° C. until the sugar degree reached 58-60% Brix. A proper amount of L-arabinose was added as seed crystals (as shown in Table 8-1 below, seed crystal with different specifications was selected: 40-60 mesh, 16.5 g; 60-80 mesh, 6 g; 80-100 mesh, 1.5 g). The mixture was stirred (double-layered type of stirring, with two-half-crescent type for the lower layer and three-bladed propeller type for the upper layer) at a rate of 90-110 rpm until the seed crystal was completely dispersed. Then the sugar liquid was added at a rate of 50-100 mL/h in a fed-batch manner for a time period of 12/18 h. After the fed-batch addition was completed, the concentrating was continued for 1-2 h. It was about 14 h from the time the seed crystal was added to the time of discharging.
According to the results shown in Table 8-1, the specific surface area of the seed crystal of 80-100 mesh is relatively […] compared with that of the seed crystal of other specifications (as shown in Table 8-2), but the particle size distribution of the sample obtained by experiment is relatively uniform: the proportion of 20-80 mesh is more than 89.7%, and the maximum proportion is more than 90%, which fully complies with the requirements of the existing pharmacopoeia (Chinese pharmacopoeia (2020)) for granules: granules cannot pass through a No. 1 sieve (10 mesh, 2000 μm) and the total quantity of granules which can pass through a No. 5 sieve (80 mesh, pore size of […]) should not exceed 15%.

Data set [4] in a line: Particle size parameter test (BT-2900 image particle size analysis system). It counts as physicochemical. The text has this:
(§1) Example 4. Particle Size Parameters and Powder Characteristics (Quantity Distribution) of L-Arabinose

Another data set has as its system SPF mice. In words: Bowel preparation in mice. It is filed as in vivo. The procedure: 5.1 Experimental animals and feeding thereof: SPF (Specific pathogen free) mice, 6 weeks old; normal feed was D12450-B feed: 67.35 wt % carbohydrates, 19.2 wt % crude protein, 4.3 wt % fat. The temperature of the room was kept at 24-26° C. with humidity at 40-60%.
5.2 Experimental method and procedure:
The SPF mice were randomly divided into a blank control group, a positive control group and a treatment group, 20 mice per group, half being male and half female. Administration method: Animals in each group were fasted (water was accessible) from last 22:00 before the day of experiment, were each given ⅓ the calculated amount of drug by intragastrical administration at 7:00, 9:00 and 11:00 on the day of experiment, were each given 0.1 mL of purified water at 12:00, 13:00 and 14:00, and were dissected 3.5 h after the last administration.

A short description of data set [5]: Flowability test (particle and powder characteristic analyzer, FT-102D). It counts as physicochemical.
Text: as §1
Example 13. Performance Test Results for the Granules of the Present Disclosure

[6] abbreviates: quantity distribution, image particle size analysis.

As for `O[C@@H]1[C@@H](O)[C@@H](O)OC[C@@H]1O` [L-arabinose, β-L-(+)-arabinose], the “Percent increase in osmotic pressure” value in data set [1] worked out at 22.8%. Besides, the Supersaturation coefficient in data set [2] (40 °C) came to 1.233; in data set [2] (49 °C), 1.154; in data set [2] (53 °C), 1.134; in data set [2] (58 °C), 1.135; in data set [2] (65 °C) it was 1.097. Besides, the Crystallization mass concentration in data set [2] (40 °C) is reported as 57.07%; in data set [2] (49 °C) it was 60.81%; in data set [2] (53 °C), 62.48%; in data set [2] (58 °C), 64.56%; in data set [2] (65 °C), 67.47%. Moreover, the Saturation mass concentration in data set [2] (40 °C) is recorded as 46.3%; in data set [2] (49 °C) it was 52.7%; in data set [2] (53 °C), 55.1%; in data set [2] (58 °C), 56.9%; in data set [2] (65 °C) it was 61.5%.

In the case of `O[C@@H]1[C@@H](O)[C@@H](O)OC[C@@H]1O` [Example 1, β-L-(+)-arabinose], in the data set on Humans (30 g oral, at 10:42 (dose at 10:06)), the “Stool passed, first bathroom visit” value is recorded as “loose stool”. Moreover, the “Stool passed, second bathroom visit” value with Humans (30 g oral, at 11:11) is reported as “watery stool”. For the same compound, the “Stool passed, third bathroom visit” value with Humans (30 g oral, at 11:55) was “watery stool with little residue”. Moreover, in the data set on Humans (30 g oral, at 13:27), the “Stool passed, fourth bathroom visit” value is “light yellow watery stool without residue”. For the same compound, in the data set with Humans (one subject, 30 g oral in 100-150 mL water), the “Time from administration to first stool” value is on record as “About 40 min”. In data set [3], this compound showed a Granularity distribution of sample (standard sieve) 20-80 mesh of 71.2%, a Granularity distribution of sample (standard sieve) <80 mesh of 5.4% and a Granularity distribution of sample (standard sieve) >20 mesh of 23.4%. Moreover, the span in data set [4] (particle size analysis) is reported as 0.985. Further, in data set [4] (setting [6]), the Average particle size was 149 μm, the D10 is reported as 49 μm, the D50 amounted to 138 μm and the D90 is given as 261 μm. For the same compound, the “Dosage relative to the positive control group to achieve the same effect” value in the data set with SPF mice (12 g/kg vs PEG 31.5 g/kg) was determined as 38%. In addition, the “Residue in the rectum and colon after the dissection” value in the data set on SPF mice (dissected 3.5 h after the last administration, L-arabinose 12 g/kg, PEG 31.5 g/kg) was “no residue was left in the rectum and colon”. Moreover, the “Stools observed before the dissection” value in the data set on SPF mice (intragastrical, three doses, L-arabinose 12 g/kg, PEG 31.5 g/kg) is “Watery and loose stools”. Moreover, in data set [5], the Bulk density was found to be 0.7 g/mL, the Compressibility is 17.1%, the Floodability index is 75.0 and the “Flowability (Hausner ratio)” value is “Good”. Also, in data set [5], the Hausner ratio came to 1.2 and the Tap density was found to be 0.85 g/mL. Moreover, in data set [5] (in ° (unit assumed)), the Angle of repose was found to be 40.01.
